Several values for one entry are separate records, joined by “and”; a condition that tells them apart may be missing. Equal values may be shown once.
Legend:
Aedes aegypti mosquitoes [1] = assay: Mosquito repellency on skin (olfactometer, human forearm); type: in vivo
Thermal stability = type: physicochemical
Vapor pressure = type: physicochemical; details: at 125° C., estimated or extrapolated from literature values
Aedes aegypti mosquitoes [2] = assay: Mosquito repellency on gauze or polyester film (olfactometer); type: in vivo; details: cotton gauze or polyester film, 0.3 mg/cm^2, 3 minutes after application
Description: Olfactometer: A Fiensod and […] olfactometer, as modified by Bowen and Davis, measured the host-oriented flight response of female mosquitoes to volatile host emanations (Feinsod, F. M., and […]; An olfactometer for measuring host-seeking behavior of female Aedes aegypti (Diptera: Culicidae); J. Med. Entomol., 15: 282-285, 1979). The olfactometer (approximately 38 cm high) consisted of an upper and lower screened chamber with a closure between the chambers (FIG. 8). A fan placed above the upper chamber drew air through the apparatus at approximately 0.2 m/s. A temperature and humidity controlled chamber (5' wide by 6' long by 8' high) was constructed to house the test subject and the olfactometer. Rearing of Mosquitoes: A second environmental chamber, maintained at 27° C. and 80% humidity, was dedicated to the rearing of Aedes aegypti mosquitoes. […] Assays for Attraction of Mosquitoes to Human Subjects: A group of 30 volunteers, consisting of 14 females and 16 males and ranging in age from 24 to 68 years, was selected from the surrounding civilian population. Individuals were tested for their ability to attract Aedes aegypti mosquitoes contained in the olfactometer. Tests were conducted at a temperature of 27° C. and 50% relative humidity. […] A small fan was placed on top of the upper chamber to cause an air flow from the lower chamber to the upper chamber. A trial began when the closure between the upper and lower chamber was opened in the absence of a human host. […] This trial was repeated twice during a test session to obtain three replicates. Two additional test sessions, at time intervals of at least 1 week, were conducted to obtain at least 8-9 replicates for each of 24 subjects. Of the remaining 6 subjects, 3 were tested on two separate occasions for a total of 6 replicates per subject; 3 were tested on one occasion for a total of 3 replicates per subject. A total of 254 tests were conducted. Test compounds were dissolved in acetone or ethanol at a concentration of 150 mg/5 cc. Ethanol solutions of carboxylic acids were prepared just prior to use. Five hundred microliters of these solutions were applied to a 50 cm^2 circular area of a single layer of cotton gauze (Curity Curad gauze, Futuro Inc., Milford, Ohio) or nonwoven polyester film ([…], Inc.). The resultant dose was 0.3 mg/cm^2. […] The cup was attached to the bottom of the olfactometer (FIG. 8) so that air flowed through the stainless steel screen of the cup, through the treated gauze or film, and through the olfactometer. A volunteer's forearm was placed under the cup, so that air drawn into the cup and olfactometer was laden with human skin emanations. Tests were conducted as described in the preceding paragraph, “Assays for attraction of mosquitoes to human subjects”. Percent repellency was determined from the fraction of mosquitoes entering the lower chamber over a seven minute period. This assay is an approximate measure of the intrinsic repellency of a compound. Good repellency in this test is a necessary, but not sufficient, condition for good repellency on skin. Mosquito repellents must produce a vapor over the skin surface to confuse the host seeking behavior of the insect. However, volatilization must not be so great that the repellent action rapidly dissipates. Since volatilization from the skin will be different from an inanimate surface, skin tests are necessary to confirm that a compound will be a practical repellent.

Aedes aegypti mosquitoes [3] = assay: Mosquito repellency on skin (olfactometer, human forearm); type: in vivo; details: for Percent Repellency 2 h: 0.3 mg/cm^2, 2 h after application; for Percent Repellency 0 h: 0.3 mg/cm^2, 0 h after application
Description: Olfactometer: A Fiensod and Spielman olfactometer, as modified by Bowen and Davis, measured the host-oriented flight response of female mosquitoes to volatile host emanations (Feinsod, F. M., and A. Spielman; An olfactometer for measuring host-seeking behavior of female Aedes aegypti (Diptera: Culicidae); J. Med. Entomol., 15: 282-285, 1979). The olfactometer (approximately 38 cm high) consisted of an upper and lower screened chamber with a closure between the chambers (FIG. 8). A fan placed above the upper chamber drew air through the apparatus at approximately 0.2 m/s. A temperature and humidity controlled chamber (5′ wide by 6′ long by 8′ high) was constructed to house the test subject and the olfactometer.
Rearing of Mosquitoes: A second environmental chamber, maintained at 27° C. and 80% humidity, was dedicated to the rearing of Aedes aegypti mosquitoes. Routine shipments of eggs (American Biological Supply, Gainesville, Fla.) were used to maintain a continuous supply of adult 5-10 day old mosquitoes.
Assays for Attraction of Mosquitoes to Human Subjects: A group of 30 volunteers, consisting of 14 females and 16 males and ranging in age from 24 to 68 years, was selected from the surrounding civilian population. Individuals were tested for their ability to attract Aedes aegypti mosquitoes contained in the olfactometer. Tests were conducted at a temperature of 27° C. and 50% relative humidity. For each trial 15 avid adult female Aedes aegypti mosquitoes (5-10 days post-emergence) were placed in the upper chamber. A small fan was placed on top of the upper chamber to cause an air flow from the lower chamber to the upper chamber. A trial began when the closure between the upper and lower chamber was opened in the absence of a human host. The number of mosquitoes entering the lower chamber within a 3 minute period was recorded. The volunteer then placed his or her arm beneath the lower chamber and the number of mosquitoes flying from the upper chamber to the lower chamber was recorded for the time intervals 0-1, 1-3, 3-5 and 5-7 minutes. This trial was repeated twice during a test session to obtain three replicates. Two additional test sessions, at time intervals of at least 1 week, were conducted to obtain at least 8-9 replicates for each of 24 subjects. Of the remaining 6 subjects, 3 were tested on two separate occasions for a total of 6 replicates per subject; 3 were tested on one occasion for a total of 3 replicates per subject. A total of 254 tests were conducted.
Test compounds were dissolved in acetone or ethanol at a concentration of 300 mg/5 cc. Ethanol solutions of carboxylic acids were prepared just prior to use. Three hundred and fifty microliters of these solutions were applied to a 70 cm^2 rectangular area of the forearm. The resultant dose was 0.3 mg/cm^2. The repellent treated area was allowed to dry for 5 minutes prior to test. The treated skin area was placed under the olfactometer and tests were conducted as described in the preceding paragraph, “Assays for attraction of mosquitoes to human subjects”. Percent repellency was determined from the fraction of mosquitoes entering the lower chamber over a seven minute period.
A commercial formulation of DEET (Skintastic, S. C. Johnson, Racine,) was applied to a 100 cm^2 area on the forearm of 1 volunteer (subject 02) to give a dose of 0.3 mg/cm^2 of DEET. A formulation of C8C9C10 (5% octanoic, 5% nonanoic, 5% decanoic in Dow Corning 345 volatile silicone fluid) was applied to a 100 cm^2 on the subject's other arm to give a dose of 0.3 mg/cm^2 total acids. Application sites were placed under the olfactometer at 1, 2 and 4 hours after treatment. Untreated areas on each arm were placed under the olfactometer at the completion of the treated area tests to check the avidity of the mosquitoes. Tests were done on four separate test days. […]

Ionization at skin pH = type: physicochemical; details: pH = pKa of the acids
Description: Naturally occurring fatty acids contain both polar (carboxylic acid group) and non-polar (alkyl chain) regions in their structure and the lower molecular weight homologs are sufficiently volatile to evaporate from the skin surface. Individually, these compounds have repellent activity. A number of these compounds were applied to non-absorptive gauze mounted between the human forearm and the olfactometer containing mosquitoes. These tests were done immediately after application to minimize losses due to evaporation (described fully in “Example 2” below). Because skin absorption and evaporative loss is minimized, this test can be regarded as a measure of the potency of the compounds. Homologs containing 8 to 11 carbon atoms had similar potency (percent repellency), which was greater than that of DEET (FIG. 3). Six carbon homologs and twelve carbon homologs had potency equal to or less than DEET. […] Percent repellency dropped dramatically with increasing numbers of carbon atoms in the molecule (FIG. 4). […] The nonanoic acid was preferably saturated. 4MOCTAN had the best overall performance at the zero and two hour time points. It should be noted for FIGS. 4 and 5 that the carboxylic acids exist on the skin at a pH which ionizes 50% of the molecules (pH=pKa of the acids). Since the ionized species are not volatile, the actual available dose is approximately 50% of that for DEET.

Aedes aegypti = details: 0.5 mg/cm^2 on the skin of man; cited from earlier work
mosquitoes [4] = details: under laboratory conditions; cited from earlier work
mosquitoes [5] = details: Hill et al. 1979; cited from earlier work
[6] = test system: yellow fever mosquito (Aedes aegypti (L.)); details: human skin, approximately 2 mg/cm^2, time until two bites; DEET from Gilbert 1957; cited from earlier work
Aedes aegypti mosquitoes [7] = details: 0.31 mg/cm^2; cited from earlier work
[8] = at 125° C., literature values; cited from earlier work
[9] = on skin, listed as N,N-Diethyl-m-toluamide

For `CCCCC(C)CCC(=O)O` (centres unmarked) [4-Methyloctanoic acid], the “repellency over a 4 hour period compared to DEET” value (Aedes aegypti mosquitoes [1]; 0.6 mg/cm^2 versus 0.3 mg/cm^2 DEET, FIG. 6) was “nearly equal to that of DEET”, the “Percent Repellency 2 h” value (Aedes aegypti mosquitoes [1]; on skin, 0.6 mg/cm^2, 2 h after application) was 79 ± 21 (2) % and the “Percent Repellency 4 h” value (Aedes aegypti mosquitoes [1]; on skin, 0.6 mg/cm^2, 4 h after application) was 67 ± 9%. The Thermal stability (Thermal stability) was “thermally unstable”, the “Vol. (vapor pressure), (est)” value (Vapor pressure) was 6 (est) mm Hg and the pest or weed control at 0.3 mg/cm2 (Aedes aegypti mosquitoes [2]; Aedes aegypti, 0.05 h, read-out: Percent Repellency) was 88 ± 18%. The “repellency immediately after application to skin, compared to DEET” value (Aedes aegypti mosquitoes [3]; FIG. 4) was “comparable to DEET”, the “repellency two hours after skin application, ranking” value (Aedes aegypti mosquitoes [3]; FIG. 5) was “highest repellency” and the “Percent Repellency 2 h” value (Aedes aegypti mosquitoes [3]; on skin) was 66 (1) %. The “fraction ionized at skin pH” value (Ionization at skin pH) was “about 50%”.

In the case of `CCN(CC)C(=O)c1cccc(C)c1` [DEET, N,N,-diethyl-m-toluamide, reference compound], the “Protection Time” value (Aedes aegypti) is listed as 8 ± 2 h, the hours of protection (mosquitoes [4]) is listed as 5 to 7 h and the “protects against mosquitoes for” value (mosquitoes [5]) is listed as 5 to 6 h. For the same compound, the “Percent Repellency” value (Aedes aegypti mosquitoes [2]) was 74%, the “Percent Repellency” value (Aedes aegypti mosquitoes [2]; listed as N,N-Diethyl-m-toluamide) was 74 ± 12% and the “Percent Repellency 0 h” value (Aedes aegypti mosquitoes [3]; on skin) was 95% and 95 ± 6%. The “Percent Repellency 0 h” value (Aedes aegypti mosquitoes [3]; [9]) was 95 ± 6 (3) %, the “Percent Repellency 2 h” value (Aedes aegypti mosquitoes [3]; on skin) was 89% and 89 ± 10% and the “Percent Repellency 2 h” value (Aedes aegypti mosquitoes [3]; [9]) was 89 ± 10 (3) %. For the same compound, the “Percent Repellency 4 h” value (Aedes aegypti mosquitoes [3]; on skin, 0.3 mg/cm^2, 4 h after application) was 83 ± 9%, the “Protection time against yellow fever mosquitoes” value [6] was 363 min^b and the “Protection time against Aedes aegypti mosquitoes” value (Aedes aegypti mosquitoes [7]) was 5.5 h.

For `CCCCCC(=O)O` [Hexanoic acid], the “Vol. (vapor pressure)” value [8] is given as 39.6 mm Hg.

— patent US6953814B2, “Natural insect repellant” (Stratacor, Inc., priority 1997, dated 2005)
